Laboratory results from patent US9139529B2, “Substituted quinoxalines as sodium channel modulators” (VERTEX PHARMACEUTICALS INCORPORATED, priority 2013, dated 2015).

Target: human Nav1.8 (Homo sapiens (Human), UniProt Q9Y5Y9)
Experiment: E-VIPR optical membrane potential assay with electrical stimulation
Format: cell-based
Conditions: HEK cells expressing human Nav1.8
Excerpt: Assays for Detecting and Measuring NaV Inhibition Properties of Compounds E-VIPR Optical Membrane Potential Assay Method with Electrical Stimulation
Sodium channels are voltage-dependent proteins that can be activated by inducing membrane voltage changes by applying electric fields. The electrical stimulation instrument and methods of use are described in Ion Channel Assay Methods PCT/US01/21652, herein incorporated by reference and are referred to as E-VIPR. The instrument comprises a microtiter plate handler, an optical system for exciting the coumarin dye while simultaneously recording the coumarin and oxonol emissions, a waveform generator, a current- or voltage-controlled amplifier, and a device for inserting electrodes in well. Under integrated computer control, this instrument passes user-programmed electrical stimulus protocols to cells within the wells of the microtiter plate.
24 hours before the assay on E-VIPR, HEK cells expressing human Nav1.8 were seeded in 384-well poly-lysine coated plates at 15,000-20,000 cells per well. HEK cells were grown in media (exact composition is specific to each cell type and NaV subtype) supplemented with 10% FBS (Fetal Bovine Serum, qualified; GibcoBRL #16140-071) and 1% Pen-Strep (Penicillin-Streptomycin; GibcoBRL #15140-122). Cells were grown in vented cap flasks, in 90% humidity and 5% CO2.
1) Pre-spotted compounds (in neat DMSO) into compound plates. Vehicle control (neat DMSO), the positive control (20 mM DMSO stock tetracaine, 125 μM final in assay) and test compounds were added to each well at 160× desired final concentration in neat DMSO. Final compound plate volume was 80 μL (80-fold intermediate dilution from 1 μL DMSO spot; 160-fold final dilution after transfer to cell plate). Final DMSO concentration for all wells in assay was 0.625%.
2) Prepared Hexyl Dye Solution.
3) Prepared cell plates. On the day of the assay, medium was aspirated and cells were washed three times with 100 μL of Bath1 Solution, maintaining 25 μL residual volume in each well.
4) Dispensed 25 μL per well of Hexyl Dye Solution into cell plates. Incubated for 20-35 minutes at room temp or ambient conditions.
5) Dispensed 80 μL per well of Bath1 into compound plates. Acid Yellow-17 (1 mM) was added and Potassium Chloride was altered from 4.5 to 20 mM depending on the NaV subtype and assay sensitivity.
6) Washed cell plates three times with 100 μL per well of Bath1, leaving 25 μL of residual volume. Then transferred 25 uL per well from Compound Plates to Cell Plates. Incubated for 20-35 minutes at room temp/ambient condition.
7) Read Plate on E-VIPR. Used the current-controlled amplifier to deliver stimulation wave pulses for 10 seconds and a scan rate of 200 Hz. A pre-stimulus recording was performed for 0.5 seconds to obtain the un-stimulated intensities baseline. The stimulatory waveform was followed by 0.5 seconds of post-stimulation recording to examine the relaxation to the resting state.
Data was analyzed and reported as normalized ratios of emission intensities measured in the 460 nm and 580 nm channels. The response as a function of time was reported as the ratios obtained using the following formula: […]
The data was further reduced by calculating the initial (Ri) and final (Rf) ratios. These were the average ratio values during part or all of the pre-stimulation period, and during sample points during the stimulation period. The response to the stimulus R=Rf/Ri was then calculated and reported as a function of time.
Control responses were obtained by performing assays in the presence of a compound with the desired properties (positive control), such as tetracaine, and in the absence of pharmacological agents (negative control). Responses to the negative (N) and positive (P) controls were calculated as above. The compound antagonist activity A is defined as:
[formula] where R is the ratio response of the test compound

Chain of human Nav1.8 (Q9Y5Y9 whole entry): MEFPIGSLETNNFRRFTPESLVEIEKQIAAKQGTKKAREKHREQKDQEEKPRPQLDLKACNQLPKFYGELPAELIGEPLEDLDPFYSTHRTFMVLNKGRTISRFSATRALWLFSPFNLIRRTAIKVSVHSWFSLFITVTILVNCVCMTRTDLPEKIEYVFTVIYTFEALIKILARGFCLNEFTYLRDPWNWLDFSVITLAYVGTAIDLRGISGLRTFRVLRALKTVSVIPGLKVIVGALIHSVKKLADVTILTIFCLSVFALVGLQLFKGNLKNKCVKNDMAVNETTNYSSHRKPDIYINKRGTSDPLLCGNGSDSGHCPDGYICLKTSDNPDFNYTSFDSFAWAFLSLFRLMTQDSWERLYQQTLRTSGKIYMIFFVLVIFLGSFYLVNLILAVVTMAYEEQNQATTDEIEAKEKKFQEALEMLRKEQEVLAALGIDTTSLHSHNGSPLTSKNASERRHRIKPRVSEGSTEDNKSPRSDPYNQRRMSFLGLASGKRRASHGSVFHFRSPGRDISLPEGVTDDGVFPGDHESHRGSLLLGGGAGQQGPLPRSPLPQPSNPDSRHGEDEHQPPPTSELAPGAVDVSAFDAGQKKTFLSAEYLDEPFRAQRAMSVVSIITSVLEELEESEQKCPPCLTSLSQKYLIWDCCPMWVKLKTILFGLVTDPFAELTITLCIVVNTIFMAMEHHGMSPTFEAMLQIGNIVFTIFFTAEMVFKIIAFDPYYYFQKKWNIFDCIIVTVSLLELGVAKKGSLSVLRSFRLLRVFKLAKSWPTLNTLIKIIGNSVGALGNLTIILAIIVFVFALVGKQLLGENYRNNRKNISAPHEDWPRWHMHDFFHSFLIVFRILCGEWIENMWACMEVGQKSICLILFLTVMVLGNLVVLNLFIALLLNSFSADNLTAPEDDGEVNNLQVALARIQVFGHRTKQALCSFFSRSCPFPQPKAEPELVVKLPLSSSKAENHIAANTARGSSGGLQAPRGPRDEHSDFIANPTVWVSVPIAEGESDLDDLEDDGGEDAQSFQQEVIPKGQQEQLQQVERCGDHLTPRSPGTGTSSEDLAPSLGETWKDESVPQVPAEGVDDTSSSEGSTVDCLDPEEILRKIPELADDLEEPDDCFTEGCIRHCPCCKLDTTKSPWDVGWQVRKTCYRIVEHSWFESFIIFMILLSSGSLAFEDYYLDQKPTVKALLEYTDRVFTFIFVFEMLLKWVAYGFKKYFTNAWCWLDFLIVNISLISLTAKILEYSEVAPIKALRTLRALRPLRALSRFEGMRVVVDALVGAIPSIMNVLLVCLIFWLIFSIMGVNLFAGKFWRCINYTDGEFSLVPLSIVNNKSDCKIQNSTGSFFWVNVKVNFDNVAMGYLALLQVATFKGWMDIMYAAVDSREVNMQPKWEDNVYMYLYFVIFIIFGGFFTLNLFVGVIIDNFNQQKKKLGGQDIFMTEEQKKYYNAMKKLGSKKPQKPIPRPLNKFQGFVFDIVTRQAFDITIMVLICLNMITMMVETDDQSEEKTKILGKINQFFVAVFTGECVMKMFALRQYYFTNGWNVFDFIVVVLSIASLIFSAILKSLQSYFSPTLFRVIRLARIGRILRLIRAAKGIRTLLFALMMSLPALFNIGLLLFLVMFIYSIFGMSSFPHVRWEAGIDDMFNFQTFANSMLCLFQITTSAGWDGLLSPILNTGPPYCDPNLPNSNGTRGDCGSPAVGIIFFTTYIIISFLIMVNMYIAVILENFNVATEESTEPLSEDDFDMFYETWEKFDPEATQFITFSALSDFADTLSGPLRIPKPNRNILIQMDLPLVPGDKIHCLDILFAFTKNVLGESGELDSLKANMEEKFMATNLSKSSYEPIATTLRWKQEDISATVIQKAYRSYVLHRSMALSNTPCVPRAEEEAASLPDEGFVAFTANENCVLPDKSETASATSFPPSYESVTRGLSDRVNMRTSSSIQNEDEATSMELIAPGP

SMILES | IC50 [nM]
COc1cc(F)ccc1Oc1nc2ccccc2nc1C(=O)Nc1ccc(C#N)nc1 [Compound 51, N-(6-cyanopyridin-3-yl)-3-(4-fluoro-2-methoxyphenoxy)quinoxaline-2-carboxamide] | 37
COc1ccc(Oc2nc3ccccc3nc2C(=O)Nc2cccc(S(N)(=O)=O)c2)c(F)c1 [Compound 12, 3-(2-fluoro-4-methoxyphenoxy)-N-(3-sulfamoylphenyl)quinoxaline-2-carboxamide] | 22
NS(=O)(=O)c1cccc(NC(=O)c2cc3ccccc3nc2Oc2ccccc2)c1 [Compound 64, 2-phenoxy-N-(3-sulfamoylphenyl)quinoline-3-carboxamide] | 81
NS(=O)(=O)c1cccc(NC(=O)c2nc3ccccc3nc2Oc2ccc(OC(F)(F)F)cc2)c1 [Compound 3, N-(3-sulfamoylphenyl)-3-(4-(trifluoromethoxy)phenoxy)quinoxaline-2-carboxamide] | 14
CNS(=O)(=O)c1cccc(NC(=O)c2nc3ccccc3nc2Oc2ccc(F)cc2OC)c1 [Compound 16, 3-(4-fluoro-2-methoxyphenoxy)-N-(3-(N-methylsulfamoyl)phenyl)quinoxaline-2-carboxamide] | 22
O=C(O)c1ccc(NC(=O)c2nc3ccccc3nc2Oc2ccccc2)cn1 [Compound 20, 5-(3-phenoxyquinoxaline-2-carboxamido)picolinic acid] | 1080
COc1cc(F)ccc1Oc1nc2ccccc2nc1C(=O)Nc1ccc(C(N)=O)cc1 [Compound 58, N-(4-carbamoylphenyl)-3-(4-fluoro-2-methoxyphenoxy)quinoxaline-2-carboxamide] | 31
COc1cc(F)ccc1Oc1nc2ccccc2nc1C(=O)Nc1ccc2cn[nH]c2c1 [Compound 47, 3-(4-fluoro-2-methoxyphenoxy)-N-(1H-indazol-6-yl)quinoxaline-2-carboxamide] | 130
COc1cc(Cl)ccc1Oc1nc2ccccc2cc1C(=O)Nc1cccc(S(N)(=O)=O)c1 [Compound 73, 2-(4-chloro-2-methoxyphenoxy)-N-(3-sulfamoylphenyl)quinoline-3-carboxamide] | 31
O=C(Nc1cc[nH]c(=O)c1)c1nc2ccccc2nc1Oc1ccc(F)cc1 [Compound 35, 3-(4-fluorophenoxy)-N-(2-oxo-1,2-dihydropyridin-4-yl)quinoxaline-2-carboxamide] | 74
COc1ccc(Oc2nc3ccccc3nc2C(=O)Nc2cccc(S(N)(=O)=O)c2)cc1F [Compound 7, 3-(3-fluoro-4-methoxyphenoxy)-N-(3-sulfamoylphenyl)quinoxaline-2-carboxamide] | 42
COc1cc(F)ccc1Oc1nc2ccccc2nc1C(=O)Nc1ccc2[nH]c(=O)[nH]c2c1 [Compound 57, 3-(4-fluoro-2-methoxyphenoxy)-N-(2-oxo-2,3-dihydro-1H-benzo[d]imidazol-5-yl)quinoxaline-2-carboxamide] | 19
COc1cc(F)ccc1Oc1nc2ccccc2nc1C(=O)Nc1ccc(C#N)cc1 [Compound 55, N-(4-cyanophenyl)-3-(4-fluoro-2-methoxyphenoxy)quinoxaline-2-carboxamide] | 46
COc1ccc(Oc2nc3ccccc3nc2C(=O)Nc2cccc(S(N)(=O)=O)c2)c(Cl)c1 [Compound 4, 3-(2-chloro-4-methoxyphenoxy)-N-(3-sulfamoylphenyl)quinoxaline-2-carboxamide] | 4

Further molecules by falling IC50, results first:

IC50 [nM] | SMILES
460 | COc1cc(F)ccc1Oc1nc2ccccc2nc1C(=O)Nc1cccc(C(=O)O)c1 [Compound 36, 3-(3-(4-fluoro-2-methoxyphenoxy)quinoxaline-2-carboxamido)benzoic acid]
425 | COc1cc(F)ccc1Oc1nc2ccccc2nc1C(=O)Nc1ccc2[nH]c(CO)nc2c1 [Compound 44, 3-(4-fluoro-2-methoxyphenoxy)-N-(2-(hydroxymethyl)-1H-benzo[d]imidazol-5-yl)quinoxaline-2-carboxamide]
235 | COc1ccc(Oc2nc3ccccc3nc2C(=O)Nc2ccc(C(=O)O)nc2)c(F)c1 [Compound 21, 5-(3-(2-fluoro-4-methoxyphenoxy)quinoxaline-2-carboxamido)picolinic acid]
96 | COc1cc(F)ccc1Oc1nc2ccccc2nc1C(=O)Nc1ccc2[nH]nnc2c1 [Compound 42, N-(1H-benzo[d][1,2,3]triazol-5-yl)-3-(4-fluoro-2-methoxyphenoxy)quinoxaline-2-carboxamide]
86 | COc1cc(F)ccc1Oc1nc2ccccc2nc1C(=O)Nc1ccc2[nH]ncc2c1 [Compound 48, 3-(4-fluoro-2-methoxyphenoxy)-N-(1H-indazol-5-yl)quinoxaline-2-carboxamide]
80 | COc1cc(F)ccc1Oc1nc2ccccc2nc1C(=O)Nc1cccnc1 [Compound 54, 3-(4-fluoro-2-methoxyphenoxy)-N-(pyridin-3-yl)quinoxaline-2-carboxamide]
51 | O=C(O)c1ccc(NC(=O)c2nc3ccccc3nc2Oc2ccc(F)cc2Cl)cn1 [Compound 28, 5-(3-(2-chloro-4-fluorophenoxy)quinoxaline-2-carboxamido)picolinic acid]
46 | COc1ccc(Oc2nc3ccccc3nc2C(=O)Nc2ccc(C(=O)O)nc2)c(OC)c1 [Compound 26, 5-(3-(2,4-dimethoxyphenoxy)quinoxaline-2-carboxamido)picolinic acid]
34 | COc1ccc(Oc2nc3ccccc3cc2C(=O)Nc2cccc(S(N)(=O)=O)c2)c(F)c1 [Compound 70, 2-(2-fluoro-4-methoxyphenoxy)-N-(3-sulfamoylphenyl)quinoline-3-carboxamide]
15 | COc1ccc(Oc2nc3ccccc3cc2C(=O)Nc2cccc(S(N)(=O)=O)c2)c(Cl)c1 [Compound 69, 2-(2-chloro-4-methoxyphenoxy)-N-(3-sulfamoylphenyl)quinoline-3-carboxamide]
15 | O=C(O)c1ccc(NC(=O)c2nc3ccccc3nc2Oc2ccc(OC(F)(F)F)cc2)cn1 [Compound 31, 5-(3-(4-(trifluoromethoxy)phenoxy)quinoxaline-2-carboxamido)picolinic acid]
14 | Cc1cc(Cl)ccc1Oc1nc2ccccc2cc1C(=O)Nc1cccc(S(N)(=O)=O)c1 [Compound 71, 2-(4-chloro-2-methylphenoxy)-N-(3-sulfamoylphenyl)quinoline-3-carboxamide]
11 | NS(=O)(=O)c1cccc(NC(=O)c2cc3ccccc3nc2Oc2ccc(F)cc2F)c1 [Compound 65, 2-(2,4-difluorophenoxy)-N-(3-sulfamoylphenyl)quinoline-3-carboxamide]
6 | COc1cc(F)ccc1Oc1nc2ccccc2nc1C(=O)Nc1cccc(S(N)(=O)=O)c1 [Compound 2, 3-(4-fluoro-2-methoxyphenoxy)-N-(3-sulfamoylphenyl)quinoxaline-2-carboxamide]
2 | NS(=O)(=O)c1cccc(NC(=O)c2cc3ccccc3nc2Oc2ccc(F)cc2Cl)c1 [Compound 66, 2-(2-chloro-4-fluorophenoxy)-N-(3-sulfamoylphenyl)quinoline-3-carboxamide]
1 | COc1cc(F)ccc1Oc1nc2ccccc2nc1C(=O)Nc1cccc(S(C)(=O)=O)c1 [Compound 46, 3-(4-fluoro-2-methoxyphenoxy)-N-(3-(methylsulfonyl)phenyl)quinoxaline-2-carboxamide]
